These results are taken from patent US20120214822A1 (ASTRAZENECA AB, priority 2007, published 2012).

The term pIC50 denotes the IC50 on a negative log10 scale, so that one unit is a factor of ten.

The assay deals with human active recombinant p38α-6His tagged (Homo sapiens, UniProt Q16539). Nature of the assay: P38 Alpha Enzyme Assay (AlphaScreen, biotinylated-ATF2 substrate).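 Note: 0.5 nM final p38α, reaction started with ATP and run 45 min at 37 °C, phospho-ATF2 read by antibody-based AlphaScreen, background wells quenched with EDTA before ATP.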 The format is biochemical. Conditions: p38 alpha enzyme inhibition; means of replicate determinations; 4 h pre-incubation at 37° C.; SD of assay 0.2-0.3 log units.
human active recombinant p38α-6His tagged, sequence (Q16539 whole entry): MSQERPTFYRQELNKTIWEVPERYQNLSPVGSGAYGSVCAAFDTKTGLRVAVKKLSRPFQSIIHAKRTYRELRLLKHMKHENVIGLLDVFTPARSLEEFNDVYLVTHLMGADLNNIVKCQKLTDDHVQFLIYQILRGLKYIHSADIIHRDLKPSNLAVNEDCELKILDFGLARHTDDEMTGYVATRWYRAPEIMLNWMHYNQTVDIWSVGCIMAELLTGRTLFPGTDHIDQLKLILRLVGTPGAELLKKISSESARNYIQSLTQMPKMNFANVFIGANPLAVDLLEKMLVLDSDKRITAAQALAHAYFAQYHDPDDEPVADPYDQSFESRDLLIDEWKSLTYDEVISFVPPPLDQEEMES
For `CCNCCOc1ccccc1C1(Nc2nccn(-c3cc(C(=O)NC4CC4)cc(F)c3C)c2=O)CC1` [Example 262, N-Cyclopropyl-3-[3-[[1-[2-[2-(ethylamino)ethoxy]phenyl]cyclopropyl]amino]-2-oxo-1(2H)-pyrazinyl]-5-fluoro-4-methyl-benzamide], the pIC50 is given as 10.2.

For `Cc1c(F)cc(C(=O)NC2CC2)cc1-n1ccnc(NC2(c3ccccc3OCCNC[C@H](C)O)CC2)c1=O` [Example 263, N-Cyclopropyl-3-fluoro-5-[3-[[1-[2-[2-[[(2S)-2-hydroxypropyl]amino]ethoxy]phenyl]cyclopropyl]amino]-2-oxo-1(2H)-pyrazinyl]-4-methyl-benzamide], the pIC50 is listed as 10.3.

Turning to `Cc1c(F)cc(C(=O)NC2CC2)cc1-n1ccnc(NC2(c3ccccc3OCCNC(C)C)CC2)c1=O` [Example 264, N-Cyclopropyl-3-fluoro-4-methyl-5-[3-[[1-[2-[2-[(1-methylethyl)amino]ethoxy]phenyl]cyclopropyl]amino]-2-oxo-1(2H)-pyrazinyl]-benzamide], the pIC50 worked out at 10.1.

As for `Cc1c(F)cc(C(=O)NC2CC2)cc1-n1ccnc(NC2(c3ccccc3OCCNC[C@@H](C)O)CC2)c1=O` [Example 265, N-Cyclopropyl-3-fluoro-5-[3-[[1-[2-[2-[[(2R)-2-hydroxypropyl]amino]ethoxy]phenyl]cyclopropyl]amino]-2-oxo-1(2H)-pyrazinyl]-4-methyl-benzamide], the pIC50 is reported as 9.7.

As for `CCNCCOc1ccccc1C(CC)(CC)Nc1nccn(-c2cc(C(=O)NC3CC3)ccc2C)c1=O` [Example 267, N-Cyclopropyl-3-[3-[[1-ethyl-1-[2-[2-(ethylamino)ethoxy]phenyl]propyl]amino]-2-oxo-1(2H)-pyrazinyl]-4-methyl-benzamide], the pIC50 amounted to 9.5.

As for `CNCCOc1ccccc1C1(Nc2nccn(-c3cc(C(=O)NC4CC4)ccc3C)c2=O)CCC1` [Example 268, N-Cyclopropyl-4-methyl-3-[3-[[1-[2-[2-(methylamino)ethoxy]phenyl]cyclobutyl]amino]-2-oxo-1(2H)-pyrazinyl]-benzamide], the pIC50 worked out at 10.

In the case of `CCNCCOc1ccccc1C1(Nc2nccn(-c3cc(C(=O)NC4CC4)ccc3C)c2=O)CCC1` [Example 269, N-Cyclopropyl-3-[3-[[1-[2-[2-(ethylamino)ethoxy]phenyl]cyclobutyl]amino]-2-oxo-1(2H)-pyrazinyl]-4-methyl-benzamide], the pIC50 turned out to be 9.9.

Turning to `Cc1ccc(C(=O)NC2CC2)cc1-n1ccnc(NC2(c3ccccc3OCCNCCO)CCC2)c1=O` [Example 270, N-Cyclopropyl-3-[3-[[1-[2-[2-[(2-hydroxyethyl)amino]ethoxy]phenyl]cyclobutyl]amino]-2-oxo-1(2H)-pyrazinyl]-4-methyl-benzamide], the pIC50 was determined as 9.9.

For the molecule `Cc1ccc(C(=O)NC2CC2)cc1-n1ccnc(NC2(c3ccccc3OCCNC(C)C)CCC2)c1=O` [Example 271, N-Cyclopropyl-4-methyl-3-[3-[[1-[2-[2-[(1-methylethyl)amino]ethoxy]phenyl]cyclobutyl]amino]-2-oxo-1(2H)-pyrazinyl]-benzamide], the negative logarithm of the IC50 (pIC50) was determined as 9.9.

On to `Cc1ccccc1[C@H](Nc1nccn(-c2cc(C(=O)NC3CC3)ccc2C)c1=O)[C@@H](C)CO` [Example 272, N-Cyclopropyl-3-[3-[[(1R,2R)-3-hydroxy-1-(2-methylphenyl)-2-methylpropyl]amino]-2-oxo-1(2H)-pyrazinyl]-4-methyl-benzamide], for which the pIC50 is given as 8.5.

For `Cc1cccc([C@H](Nc2nccn(-c3cc(C(=O)NC4CC4)ccc3C)c2=O)[C@@H](C)CO)c1` [Example 273, N-Cyclopropyl-3-[3-[[(1R,2R)-3-hydroxy-1-(3-methylphenyl)-2-methylpropyl]amino]-2-oxo-1(2H)-pyrazinyl]-4-methyl-benzamide], the pIC50 was determined as 9.

In the case of `COc1ccccc1[C@H](Nc1nccn(-c2cc(C(=O)NC3CC3)ccc2C)c1=O)[C@@H](C)CO` [Example 274, N-Cyclopropyl-3-[3-[[(1R,2R)-3-hydroxy-1-(2-methoxyphenyl)-2-methylpropyl]amino]-2-oxo-1(2H)-pyrazinyl]-4-methyl-benzamide], the pIC50 is 8.7.

Take `Cc1ccccc1[C@H](Nc1nccn(-c2cc(C(=O)NC3CC3)ccc2C)c1=O)[C@@H](C)CN1CCCC1` [Example 275, N-Cyclopropyl-3-[3-[[(1R,2S)-1-(2-methylphenyl)-2-methyl-3-(1-pyrrolidinyl)propyl]amino]-2-oxo-1(2H)-pyrazinyl]-4-methyl-benzamide]: the pIC50 was 8.6.

Regarding `Cc1cccc([C@H](Nc2nccn(-c3cc(C(=O)NC4CC4)ccc3C)c2=O)[C@@H](C)CN2CCCC2)c1` [Example 276, N-Cyclopropyl-3-[3-[[(1R,2S)-1-(3-methylphenyl)-2-methyl-3-(1-pyrrolidinyl)propyl]amino]-2-oxo-1(2H)-pyrazinyl]-4-methyl-benzamide], the pIC50 is 8.8.

As to `COc1ccccc1[C@H](Nc1nccn(-c2cc(C(=O)NC3CC3)ccc2C)c1=O)[C@@H](C)CN1CCCC1` [Example 277, N-Cyclopropyl-3-[3-[[(1R,2S)-1-(2-methoxyphenyl)-2-methyl-3-(1-pyrrolidinyl)propyl]amino]-2-oxo-1(2H)-pyrazinyl]-4-methyl-benzamide], the pIC50 stood at 8.5.

For the molecule `CNCCOc1ccc(F)cc1C1(Nc2nccn(-c3cc(C(=O)NC4CC4)ccc3C)c2=O)CC1` [Example 278, N-Cyclopropyl-3-[3-[[1-[5-fluoro-2-[2-(methylamino)ethoxy]phenyl]cyclopropyl]amino]-2-oxo-1(2H)-pyrazinyl]-4-methyl-benzamide], the pIC50 is 9.9.

Regarding `Cc1ccc(C(=O)NC2CC2)cc1-n1ccnc(NC2(c3cc(F)ccc3OCCNCCO)CC2)c1=O` [Example 279, N-Cyclopropyl-3-[3-[[1-[5-fluoro-2-[2-[(2-hydroxyethyl)amino]ethoxy]phenyl]cyclopropyl]amino]-2-oxo-1(2H)-pyrazinyl]-4-methyl-benzamide], the pIC50 is 10.1.

As for `CCNCCOc1ccc(F)cc1C1(Nc2nccn(-c3cc(C(=O)NC4CC4)ccc3C)c2=O)CC1` [Example 280, N-Cyclopropyl-3-[3-[[1-[2-[2-(ethylamino)ethoxy]-5-fluorophenyl]cyclopropyl]amino]-2-oxo-1(2H)-pyrazinyl]-4-methyl-benzamide], the pIC50 stood at 10.1.

On to `CNCCOc1ccc(F)cc1C1(Nc2nccn(-c3cc(C(=O)NC4CC4)cc(F)c3C)c2=O)CC1` [Example 281, N-Cyclopropyl-3-fluoro-5-{3-[(1-{5-fluoro-2-[2-(methylamino)ethoxy]phenyl}cyclopropyl)amino]-2-oxopyrazin-1(2H)-yl}-4-methylbenzamide], for which the pIC50 was 10.4.

For `Cc1c(F)cc(C(=O)NC2CC2)cc1-n1ccnc(NC2(c3cc(F)ccc3OCCNCCO)CC2)c1=O` [Example 282, N-Cyclopropyl-3-fluoro-5-[3-{[1-(5-fluoro-2-{2-[(2-hydroxyethyl)amino]ethoxy}phenyl)cyclopropyl]amino}-2-oxopyrazin-1(2H)-yl]-4-methylbenzamide], the negative logarithm of the IC50 (pIC50) is on record as 10.3.

As for `Cc1ccc(C(=O)NC2CC2)cc1-n1ccnc(NC2(c3cccc(F)c3OCCNC[C@@H](C)O)CC2)c1=O` [Example 283, N-Cyclopropyl-3-[3-({1-[3-fluoro-2-(2-{[(2R)-2-hydroxypropyl]amino}ethoxy)phenyl]cyclopropyl}amino)-2-oxopyrazin-1(2H)-yl]-4-methylbenzamide], the pIC50 was 9.7.

On to `Cc1ccc(C(=O)NC2CC2)cc1-n1ccnc(NC2(c3cccc(F)c3OCCN)CC2)c1=O` [Example 284, 3-[3-({1-[2-(2-Aminoethoxy)-3-fluorophenyl]cyclopropyl}amino)-2-oxopyrazin-1(2H)-yl]-N-cyclopropyl-4-methylbenzamide], for which the pIC50 turned out to be 9.5.

As to `Cc1ccc(C(=O)NC2CC2)cc1-n1ccnc(NC2(c3cccc(F)c3OCCNCCO)CC2)c1=O` [Example 285, N-Cyclopropyl-3-[3-{[1-(3-fluoro-2-{2-[(2-hydroxyethyl)amino]ethoxy}phenyl)cyclopropyl]amino}-2-oxopyrazin-1(2H)-yl]-4-methylbenzamide], the pIC50 turned out to be 9.6.

For the molecule `CCNCCOc1c(F)cccc1C1(Nc2nccn(-c3cc(C(=O)NC4CC4)ccc3C)c2=O)CC1` [Example 286, N-Cyclopropyl-3-{3-[(1-{2-[2-(ethylamino)ethoxy]-3-fluorophenyl}cyclopropyl)amino]-2-oxopyrazin-1(2H)-yl}-4-methylbenzamide], the pIC50 was found to be 9.3.

Take `CNCCOc1c(F)cccc1C1(Nc2nccn(-c3cc(C(=O)NC4CC4)ccc3C)c2=O)CC1` [Example 287, N-Cyclopropyl-3-{3-[(1-{3-fluoro-2-[2-(methylamino)ethoxy]phenyl}cyclopropyl)amino]-2-oxopyrazin-1(2H)-yl}-4-methylbenzamide]: the negative logarithm of the IC50 (pIC50) worked out at 9.3.

As for `CCc1ccc(C(=O)NC2CC2)cc1-n1ccnc(NC(C)(C)c2ccccc2OCCNC)c1=O` [Example 288, N-Cyclopropyl-4-ethyl-3-{3-[(1-methyl-1-{2-[2-(methylamino)ethoxy]phenyl}ethyl)amino]-2-oxopyrazin-1(2H)-yl}benzamide], the pIC50 turned out to be 8.4.

`CCc1ccc(C(=O)NC2CC2)cc1-n1ccnc(NC(C)(C)c2ccccc2OCCNC[C@H](C)O)c1=O` [Example 289, N-Cyclopropyl-4-ethyl-3-[3-({1-[2-(2-{[(2S)-2-hydroxypropyl]amino}ethoxy)phenyl]-1-methylethyl}amino)-2-oxopyrazin-1(2H)-yl]benzamide]: the pIC50 amounted to 8.9.

Regarding `CCNCCOc1ccccc1C(C)(C)Nc1nccn(-c2cc(C(=O)NC3CC3)ccc2CC)c1=O` [Example 290, N-Cyclopropyl-4-ethyl-3-{3-[(1-{2-[2-(ethylamino)ethoxy]phenyl}-1-methylethyl)amino]-2-oxopyrazin-1(2H)-yl}benzamide], the pIC50 worked out at 8.5.

For the molecule `CCc1ccc(C(=O)NC2CC2)cc1-n1ccnc(NC(C)(C)c2ccccc2OCCNCCO)c1=O` [Example 291, N-Cyclopropyl-4-ethyl-3-[3-{[1-(2-{2-[(2-hydroxyethyl)amino]ethoxy}phenyl)-1-methylethyl]amino}-2-oxopyrazin-1(2H)-yl]benzamide], the pIC50 came to 8.5.
